Reference: US20240368096A1 (Enanta Pharmaceuticals, Inc., priority 2022, published 2024)

Tested on: HBV
Test: HBV infection in HepG2-NTCP cells (HBeAg AlphaLISA in supernatants)
Type: cell-based
Details: Hepatitis B virus, 192 h; HBV infection of HepG2-NTCP cells; HBeAg in supernatants at day 8 post infection; read-out: Cellular EC50
In short: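 Readout was day-8 supernatant HBeAg by AlphaLISA, with EC50 set against DMSO controls and binned A<0.1 μM, B 0.1-1 μM, C>1 μM. Compounds were added 2 h before HBV (2000 GE/cell, 4% PEG, 0.5% DMSO) to HepG2-NTCP A3 cells; from day 1 medium held 2.5% DMSO.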

EC50 [nM]	SMILES
> 1000	CC(C)C[C@@H]1CN(c2ccccc2)c2cc(Cl)c(-c3ccc(N4CCCCC4)c(C(=O)O)c3)cc2S(=O)(=O)N1C [Example 219, (R)-5-(7-chloro-3-isobutyl-2-methyl-1,1-dioxido-5-phenyl-2,3,4,5-tetrahydrobenzo[f][1,2,5]thiadiazepin-8-yl)-2-(piperidin-1-yl)benzoic acid]
100 to 1000	CC(C)CC1CN(c2ccccc2)c2cc(Cl)c(-c3cc(C(=O)O)n(C)n3)cc2S(=O)(=O)N1C (stereo not drawn) [Example 39]
< 100	CN1[C@H](C2CCCCC2)CN(c2ccccc2)c2cc(OCc3ccsc3)c(-c3ccc(NC(=O)OCc4ccccc4)c(C(=O)O)c3)cc2S1(=O)=O [Example 481]
100 to 1000	CC(C)C[C@@H]1CN(C(C)C)c2cc(Oc3ccccc3F)c(-c3ccc(F)c(C(=O)O)c3)cc2S(=O)(=O)N1C [Example 468]
< 100	CN1[C@H](C2CCCCC2)CN(c2ccccc2)c2cc(Cl)c(-c3cccc(C(=O)O)c3F)cc2S1(=O)=O [Example 149, (R)-3-(7-chloro-3-cyclohexyl-2-methyl-1,1-dioxido-5-phenyl-2,3,4,5-tetrahydrobenzo[f][1,2,5]thiadiazepin-8-yl)-2-fluorobenzoic acid]
100 to 1000	CN1[C@H](C2CCCCC2)CN(c2ccccc2)c2cc(Cl)c(-c3cc(C(=O)O)cs3)cc2S1(=O)=O [Example 129, (R)-5-(7-chloro-3-cyclohexyl-2-methyl-1,1-dioxido-5-phenyl-2,3,4,5-tetrahydrobenzo[f][1,2,5]thiadiazepin-8-yl)thiophene-3-carboxylic acid]
100 to 1000	CC(C)C[C@@H]1CN(C23CC(C2)C3)c2cc(Oc3ccccc3F)c(-c3ccc(F)c(C(=O)O)c3)cc2S(=O)(=O)N1C [Example 469]
100 to 1000	CC(C)C[C@@H]1CN(c2ccccc2)c2cc(Cl)c(-c3ccc(C(F)F)c(C(=O)O)c3)cc2S(=O)(=O)N1C [Example 165]
< 100	CN1[C@H](C2CCCCC2)CN(c2ccccc2)c2cc(Cl)c(-c3cc(C(=O)O)c(Cl)s3)cc2S1(=O)=O [Example 123]
< 100	CO[C@H](C)COC(=O)Nc1cc(-c2cc3c(cc2Cl)N(c2ccccc2)C[C@@H](C2CCCCC2)N(C)S3(=O)=O)sc1C(=O)O [Example 259]
< 100	CN1[C@H](C2CCCCC2)CN(c2ccccc2)c2cc(OCC3CC(F)(F)C3)c(-c3ccc(F)c(C(=O)O)c3)cc2S1(=O)=O [Example 363]
> 1000	CCCCCCCC[C@@H]1CN(c2ccccc2)c2cc(Cl)c(-c3ccc(F)c(C(=O)O)c3)cc2S(=O)(=O)N1C [Example 82, (R)-5-(7-chloro-2-methyl-3-octyl-1,1-dioxido-5-phenyl-2,3,4,5-tetrahydrobenzo[f][1,2,5]thiadiazepin-8-yl)-2-fluorobenzoic acid]
< 100	CCOC(=O)Nc1cc(-c2cc3c(cc2F)N(c2ccccc2)C[C@@H](C2CCCCC2)N(C)S3(=O)=O)sc1C(=O)O [Example 265, (R)-5-(3-cyclohexyl-7-fluoro-2-methyl-1,1-dioxido-5-phenyl-2,3,4,5-tetrahydrobenzo[f][1,2,5]thiadiazepin-8-yl)-3-((ethoxycarbonyl)amino)thiophene-2-carboxylic acid]
100 to 1000	CC(C)C[C@@H]1CN(c2ccccc2)c2cc(N3CCc4cccc(F)c43)c(-c3ccc(Cl)c(C(=O)O)c3)cc2S(=O)(=O)N1C [Example 553]
100 to 1000	COC1CCN(c2cc3c(cc2-c2ccc(F)c(C(=O)O)c2)S(=O)(=O)N(C)[C@H](C2CCCCC2)CN3c2ccccc2)CC1 [Example 534]
100 to 1000	CN1[C@H](C2CCCCC2)CN(c2ccccc2)c2cc(Cl)c(-c3ccc(OC(F)(F)F)c(C(=O)O)c3)cc2S1(=O)=O [Example 174]
< 100	CN1[C@H](C2CCCCC2)CN(c2ccccc2)c2cc(Cl)c(-c3ccc(NS(=O)(=O)Cc4ccccc4)c(C(=O)O)c3)cc2S1(=O)=O [Example 269]
100 to 1000	CN1C[C@@H](C2CCCCC2)N(C)S(=O)(=O)c2cc(-c3ccc(F)c(C(=O)O)c3)c(Cl)cc21 [Example 582, (R)-5-(7-chloro-3-cyclohexyl-2,5-dimethyl-1,1-dioxido-2,3,4,5-tetrahydrobenzo[f][1,2,5]thiadiazepin-8-yl)-2-fluorobenzoic acid]
< 100	CC(=O)NS(=O)(=O)c1cc(-c2cc3c(cc2Cl)N(c2ccccc2)C[C@@H](C2CCCCC2)N(C)S3(=O)=O)ccc1Cl [Example 224]
< 100	CN1[C@H](C2CCCCC2)CN(c2ccccc2)c2cc(OCC3CCC3)c(-c3ccc(F)c(C(=O)O)c3)cc2S1(=O)=O [Example 364]
100 to 1000	CC(C)C[C@@H]1CN(c2ccccc2)c2cc(OC(C)(C)c3ccccc3)c(-c3ccc(Cl)c(C(=O)O)c3)cc2S(=O)(=O)N1C [Example 455]
< 100	CC(C)C[C@@H]1CN(c2ccccc2)c2cc(OC3(C)CCCC3)c(-c3ccc(Cl)c(C(=O)O)c3)cc2S(=O)(=O)N1C [Example 454]
< 100	CN1[C@H](C2CCC2)CN(c2ccccc2)c2cc(Cl)c(-c3ccc(OC(F)(F)F)c(C(=O)O)c3)cc2S1(=O)=O [Example 177]
100 to 1000	CN1[C@H](C2CCCCC2)CN(c2ccccc2)c2cc(C3COC3)c(-c3ccc(F)c(C(=O)O)c3)cc2S1(=O)=O [Example 588]

EC50 [nM]	SMILES
< 100	CN1[C@H](C2CCCCC2)CN(c2ccccc2)c2cc(OCc3cccs3)c(-c3ccc(F)c(C(=O)O)c3)cc2S1(=O)=O [Example 335]
> 1000	CC(C)C[C@@H]1CN(c2ccccc2)c2cc(Cl)c(-c3ccc(C4=CCC(C)(C)CC4)c(C(=O)O)c3)cc2S(=O)(=O)N1C [Example 217]
> 1000	O=C(O)c1cccc(-c2cc3c(cc2F)N(c2ccccc2)CC2c4ccccc4CN2S3(=O)=O)c1 (stereo not drawn) [Example 3]
< 100	Cc1cc(F)cc(Oc2cc3c(cc2-c2ccc(F)c(C(=O)O)c2)S(=O)(=O)N(C)[C@H](C2CCCCC2)CN3c2ccccc2)c1 [Example 412]
100 to 1000	CCCC[C@@H]1CN(c2ccccc2)c2cc(N3CCCC3)c(-c3ccc(F)c(C(=O)O)c3)cc2S(=O)(=O)N1C [Example 520, (R)-5-(3-butyl-2-methyl-1,1-dioxido-5-phenyl-7-(pyrrolidin-1-yl)-2,3,4,5-tetrahydrobenzo[f][1,2,5]thiadiazepin-8-yl)-2-fluorobenzoic acid]
< 100	COc1cc(-c2cc3c(cc2Cl)N(c2ccccc2)C[C@@H](C2CCCCC2)N(C)S3(=O)=O)cc(C(=O)O)c1N [Example 191]
< 100	COCCOc1cccc(N2C[C@@H](C3CCCCC3)N(C)S(=O)(=O)c3cc(-c4ccc(F)c(C(=O)O)c4)c(Cl)cc32)c1 [Example 312]
< 100	CCCCC[C@H](C)Oc1cc2c(cc1-c1ccc(F)c(C(=O)O)c1)S(=O)(=O)N(C)[C@H](C1CCCCC1)CN2c1ccccc1 [Example 356]
100 to 1000	CN1[C@H](C2CCCCC2)CN(c2ccccc2)c2cc(Cl)c(-c3ncc(C(=O)O)o3)cc2S1(=O)=O [Example 132, (R)-2-(7-chloro-3-cyclohexyl-2-methyl-1,1-dioxido-5-phenyl-2,3,4,5-tetrahydrobenzo[f][1,2,5]thiadiazepin-8-yl)oxazole-5-carboxylic acid]
< 100	CN1[C@H](C2CCCCC2)CN(c2ccccc2)c2cc(OC3CN(C(=O)OC(C)(C)C)C3)c(-c3ccc(F)c(C(=O)O)c3)cc2S1(=O)=O [Example 398]
< 100	CN1[C@H](C2CCC2)CN(c2ccccc2)c2cc(Cl)c(-c3ccc(C(F)(F)F)c(C(=O)O)c3)cc2S1(=O)=O [Example 204]
100 to 1000	CN1[C@H](C2CCCCC2)CN(CC2CC2)c2cc(Cl)c(-c3ccc(F)c(C(=O)O)c3)cc2S1(=O)=O [Example 319, (R)-5-(7-chloro-3-cyclohexyl-5-(cyclopropylmethyl)-2-methyl-1,1-dioxido-2,3,4,5-tetrahydrobenzo[f][1,2,5]thiadiazepin-8-yl)-2-fluorobenzoic acid]
100 to 1000	CC(C)C[C@@H]1CN(c2ccccc2)c2cc(-c3cccc4ncoc34)c(-c3ccc(F)c(C(=O)O)c3)cc2S(=O)(=O)N1C [Example 578]
100 to 1000	CN1[C@H](C2CCCCC2)CN(c2ccccc2)c2cc(Cl)c(-c3cc(NC(=O)OCCC(F)(F)F)c(C(=O)O)s3)cc2S1(=O)=O [Example 245]
> 1000	CN1[C@H](C2CCCCC2)CN(c2ccccc2)c2cc(C3CCNCC3)c(-c3ccc(F)c(C(=O)O)c3)cc2S1(=O)=O [Example 596]
< 100	CCCCOc1cc2c(cc1-c1ccc(F)c(C(=O)O)c1)S(=O)(=O)N(C)[C@H](C1CCCCC1)CN2c1ccccc1 [Example 350]
< 100	CN1[C@H](C2CCCCC2)CN(c2ccc(C(F)(F)F)cc2)c2cc(Cl)c(-c3ccc(F)c(C(=O)O)c3)cc2S1(=O)=O [Example 300]
< 100	COc1cc(-c2cc3c(cc2Cl)N(c2ccccc2)C[C@@H](C2CCCCC2)N(C)S3(=O)=O)cc(C(=O)O)c1NC(=O)OCC(C)C [Example 278]
100 to 1000	CN1[C@H](C2CCCCC2)CN(c2ccccc2)c2cc(OC[C@@H]3CCCN(C(=O)OC(C)(C)C)C3)c(-c3ccc(F)c(C(=O)O)c3)cc2S1(=O)=O [Example 369]
< 100	CC(C)Oc1cccc(COc2cc3c(cc2-c2cc(F)c(C(=O)O)s2)S(=O)(=O)N(C)[C@H](C2CCCCC2)CN3c2ccccc2)c1 [Example 506]
100 to 1000	CC(C)CC1CN(C2CCCC2)c2cc(Cl)c(-c3cccc(C(=O)O)c3)cc2S(=O)(=O)N1C (stereo not drawn) [Example 326, 3-(7-chloro-5-cyclopentyl-3-isobutyl-2-methyl-1,1-dioxido-2,3,4,5-tetrahydrobenzo[f][1,2,5]thiadiazepin-8-yl)benzoic acid]
100 to 1000	CC(C)C[C@@H]1CN(c2ccccc2)c2cc(Oc3cccc(Cl)c3)c(-c3ccc(F)c(C(=O)O)c3)cc2S(=O)(=O)N1C [Example 432]
< 100	CN1[C@H](C2CCC2)CN(c2ccccc2)c2cc(Cl)c(-c3cc(F)c(C(=O)O)s3)cc2S1(=O)=O [Example 121]
100 to 1000	CC(C)C[C@@H]1CN(c2ccccc2)c2cc(C3CCN(C(=O)OC(C)(C)C)CC3)c(-c3ccc(F)c(C(=O)O)c3)cc2S(=O)(=O)N1C [Example 592]
